Tests used:
Cfr.568 (AmpC, clinical) = assay: Standard BLI Potentiation MIC Assay in Combination with Ceftolozane; format: cell-based, Citrobacter spp; conditions: Cfr.568, AmpC, clinical; BLI at 4 μg/mL
Method: (§1) The experimental protocol was performed according to Clinical and Laboratory Standards Institute (CLSI) guidelines with modifications as described below (CLSI guidelines can be derived from the CLSI document M07-A9 published in January 2012: “Methods for Dilution Antimicrobial Susceptibility Tests for Bacteria That Grow Aerobically; Approved Standard-Ninth Edition”).
(§2) Frozen glycerol stocks of laboratory engineered, isogenic E. coli strains, which contain cloned β-lactamase expressing plasmids were used to streak for isolated colonies on rich, selective LB agar supplemented with 25 μg/mL tetracycline to maintain the plasmid. All strains were incubated at 37° C. for 18-24 hrs.
(§3) On the day of testing, primary cultures were started by scraping off 5-10 colonies from the TSAB plates containing clinical strains or the tetracycline supplemented LB plates containing engineered strains. […]
(§4) Plates were incubated for 18-20 hours at 37° C. with aeration (200 rpm). Following incubation, growth was confirmed visually placing plates over a viewing apparatus (stand with a mirror underneath) and then OD600 was measured using a SpectraMax 340PC384 plate reader (Molecular Devices, Sunnyvale, Calif.). Growth was defined as turbidity that could be detected with the naked eye or achieving minimum OD600 of 0.1. […]

[1] = tested on: Eco isogenic strain expressing CTX-M-15; assay: Synergy MIC (sMIC) assay; format: cell-based, Escherichia coli; conditions: β-Lactam CXA-101 at 4 μg/mL; CTX-M-15, isogenic Eco
Method: (§5) The synergy MIC (sMIC) assay determines the concentration of the BLI required to potentiate the activity of a fixed concentration of a β-lactam antibiotic against β-lactamase producing bacterial strains. The experimental protocol was performed according to Clinical and Laboratory Standards Institute (CLSI) guidelines with modifications as described below (CLSI guidelines can be derived from the CLSI document M07-A9 published in January 2012: “Methods for Dilution Antimicrobial Susceptibility Tests for Bacteria That Grow Aerobically; Approved Standard-Ninth Edition”). The assay wa set-up by serially diluting the BLI across 11 of the 12 wells in each row of a 96-well broth microdilution assay plate, adding the β-lactam at a fixed concentration to all wells in the assay plate, inoculating the assay plate with bacterial strains, and determining the lowest concentration of BLI required to inhibit overnight bacterial growth.
as §2
(§6) On the day of testing, primary cultures were started by scraping off 5-10 colonies from the TSAB plates containing clinical strains or the tetracycline supplemented LB plates containing engineered strains. The clinical strain material was suspended in ˜5 mL of cation adjusted Mueller Hinton Broth (CAMHB) in 14 mL culture tubes. The engineered strain material was suspended in CAMHB (supplemented with tetracycline at 25 μg/mL) in 14 mL culture tubes. All strains were incubated at 37° C. with aeration (200 rpm) for ≧2 hrs until the OD600 was ≧0.1.
(§7) The two compound components of the assay were each prepared in CAMHB and added to the 96-well broth microdilution assay plates. 50 μL of the BLI was added to each well of the assay plate in 2-fold dilutions with final concentrations ranging from 128 to 0.13 μg/mL. 25 μL of the β-lactam was added to all wells in the broth microdilution plates at a final concentration of 4 μg/mL. Inoculum cultures were prepared by standardizing the primary cultures to OD600=0.1 and then adding 20 μL of the adjusted primary culture per 1 mL CAMHB for clinical strains or CAMHB (supplemented with tetracycline at 100 μg/mL) for isogenic strains, so that the final inoculum density was ˜10^5 colony forming units per milliliter. Diluted inoculum cultures were used to inoculate 25 μL per well in 96-well broth microdilution assay plates. The final volume of each well was 100 μL and contained a BLI at different concentrations, a β-lactam at 4 μg/mL concentration, the bacterial culture at an OD600 of approximately 0.001 and when necessary tetracycline at 25 ug/mL.
as §4, with “0.1. sMIC values were defined as the lowest concentration producing no visible turbidity.” for “0.1.”

[2] = tested on: Eco isogenic strain expressing P99; assay: Synergy MIC (sMIC) assay; format: cell-based, Escherichia coli; conditions: β-Lactam CXA-101 at 4 μg/mL
Method: as §5, §2, §6, §7
as §4, with “0.1. sMIC values were defined as the lowest concentration producing no visible turbidity.” for “0.1.”

[3] = tested on: Eco isogenic strain, β-Lactamase none; assay: Synergy MIC (sMIC) assay; format: cell-based, Escherichia coli; conditions: β-Lactam none
Method: as §5, §2, §6, §7
as §4, with “0.1. sMIC values were defined as the lowest concentration producing no visible turbidity.” for “0.1.”

[4] = tested on: Eco isogenic strain expressing OXA-15; assay: Synergy MIC (sMIC) assay; format: cell-based, Escherichia coli; conditions: β-Lactam CXA-101 at 4 μg/mL; OXA-15, isogenic Eco
Method: as §5, §2, §6, §7
as §4, with “0.1. sMIC values were defined as the lowest concentration producing no visible turbidity.” for “0.1.”

[5] = tested on: Eco isogenic strain expressing SHV-12; assay: Synergy MIC (sMIC) assay; format: cell-based, Escherichia coli; conditions: β-Lactam CXA-101 at 4 μg/mL; SHV-12, isogenic Eco
Method: as §5, §2, §6, §7
as §4, with “0.1. sMIC values were defined as the lowest concentration producing no visible turbidity.” for “0.1.”

[6] = tested on: Eco.2843 (DHA-1, isogenic); assay: Standard BLI Potentiation MIC Assay in Combination with Ceftolozane; format: cell-based, Escherichia coli; conditions: Eco.2843, DHA-1, isogenic; BLI at 4 μg/mL
Method: as §1, §2
as §6, with “with” for “with tetracycline at”, “μg/mL tetracycline)” for “μg/mL)”, “˜2” for “≧2”, “optical density at 600 nm (OD600)” for “OD600”
(§8) The two compound components of the assay were each diluted in CAMHB and added to the 96-well broth microdilution assay plates. 50 μL of the β-lactam was added to each well of the assay plate in 2-fold dilutions with final concentrations ranging from 128 to 0.13 μg/mL. 25 μL of the BLI compound was added to all wells in the broth microdilution plates at a final concentration of 4 μg/mL. Inoculum cultures were prepared by standardizing the primary cultures to OD600=0.1 and then adding 20 μL of the adjusted primary culture per 1 mL CAMHB for clinical strains or CAMHB (supplemented with tetracycline at 100 μg/mL) for engineered strains, so that the final inoculum density was ˜10^5 colony forming units per milliliter. Diluted inoculum cultures were used to inoculate 25 μL per well in 96-well broth microdilution assay plates. The final volume of each well was 100 μL and contained a β-lactam at different concentrations, a BLIcompound at 4 μg/mL concentration, the bacterial culture at an OD600 of approximately 0.001 and when necessary tetracycline at 25 μg/mL.
(§9) Plates were incubated for 18-20 hours at 37° C. with aeration (200 rpm). Following incubation, growth was confirmed visually placing plates over a viewing apparatus (stand with a mirror underneath) and then OD600 was measured using a SpectraMax 340PC384 plate reader (Molecular Devices, Sunnyvale, Calif.). Growth was defined as turbidity that could be detected with the naked eye or achieving minimum OD600 of 0.1. MIC values were defined as the lowest concentration producing no visible turbidity.

[7] = tested on: Eco.2845 (OXA-15, isogenic); assay: as above; format: cell-based, Escherichia coli; conditions: Eco.2845, OXA-15, isogenic; BLI at 4 μg/mL
Method: as §1, §2
as §6, with “with” for “with tetracycline at”, “μg/mL tetracycline)” for “μg/mL)”, “˜2” for “≧2”, “optical density at 600 nm (OD600)” for “OD600”
as §8, §9

[8] = tested on: Eco.2491 (CMY-2, clinical); assay: as above; format: cell-based, Escherichia coli; conditions: Eco.2491, CMY-2, clinical; BLI at 4 μg/mL
Method: as §1, §2
as §6, with “with” for “with tetracycline at”, “μg/mL tetracycline)” for “μg/mL)”, “˜2” for “≧2”, “optical density at 600 nm (OD600)” for “OD600”
as §8, §9

[9] = tested on: Panel of Isogenic and Clinical Strains Expressing β-Lactamases; assay: Standard BLI Potentiation MIC Assay in Combination with Ceftolozane, whole panel; format: cell-based; conditions: panel of 24 strains; BLI at 4 μg/mL
Method: as §1, §2
as §6, with “with” for “with tetracycline at”, “μg/mL tetracycline)” for “μg/mL)”, “˜2” for “≧2”, “optical density at 600 nm (OD600)” for “OD600”
as §8, §4

Ecl.569 (AmpC, clinical) = assay: Standard BLI Potentiation MIC Assay in Combination with Ceftolozane; format: cell-based, Enterobacter spp; conditions: Ecl.569, AmpC, clinical; BLI at 4 μg/mL
Method: as §1, §2, §3, §4

[10] = tested on: Pae.2757 (AmpC over-expn, clinical); assay: as above; format: cell-based, Pseudomonas aeruginosa; conditions: Pae.2757, AmpC over-expn, clinical; BLI at 4 μg/mL
Method: as §1, §2
as §6, with “with” for “with tetracycline at”, “μg/mL tetracycline)” for “μg/mL)”, “˜2” for “≧2”, “optical density at 600 nm (OD600)” for “OD600”
as §8, §9

[11] = tested on: Pae.2885 (AmpC, clinical); assay: as above; format: cell-based, Pseudomonas aeruginosa; conditions: Pae.2885, AmpC, clinical; BLI at 4 μg/mL
Method: as §1, §2
as §6, with “with” for “with tetracycline at”, “μg/mL tetracycline)” for “μg/mL)”, “˜2” for “≧2”, “optical density at 600 nm (OD600)” for “OD600”
as §8, §9

[12] = tested on: Pae.2863 (AmpC de-repress, clinical); assay: as above; format: cell-based, Pseudomonas aeruginosa; conditions: Pae.2863, AmpC de-repress, clinical; BLI at 4 μg/mL
Method: as §1, §2
as §6, with “with” for “with tetracycline at”, “μg/mL tetracycline)” for “μg/mL)”, “˜2” for “≧2”, “optical density at 600 nm (OD600)” for “OD600”
as §8, §9

(2S,5R)-2-(5-(3-aminopropyl)-1,3,4-oxadiazol-2-yl)-7-oxo-1,6-diazabicyclo[3.2.1]octan-6-yl hydrogen sulfate [ψ]
A (A = 0.25-0.5 μg/mL): MIC of Ceftolozane in combination with BLI (Cfr.568 (AmpC, clinical)) | sMIC [1] | MIC50 of Ceftolozane in combination with BLI [9] | MIC of Ceftolozane in combination with BLI (Ecl.569 (AmpC, clinical)) | MIC of Ceftolozane in combination with BLI [11]
D (D = 16-32 μg/mL): sMIC [3]
AA (AA = <0.25 μg/mL): MIC of Ceftolozane in combination with BLI [6] | MIC of Ceftolozane in combination with BLI [8]
B (B = 1-2 μg/mL): sMIC [2] | sMIC [4] | sMIC [5] | MIC of Ceftolozane in combination with BLI [7] | MIC90 of Ceftolozane in combination with BLI [9] | MIC of Ceftolozane in combination with BLI [10] | MIC of Ceftolozane in combination with BLI [12]

Source: patent US20150111864A1, “CRYSTALLINE FORM OF A BETA-LACTAMASE INHIBITOR” (Cubist Pharmaceuticals, Inc., priority 2013, published 2015)
